# Columns and labels:
# [1] = tested on: CD4+ T cells in spleen of EAE mice; assay: Flow cytometry of spleen T cells of treated EAE mice; assay type: in vivo, mouse; settings: 100 μg i.v.
# Protocol: (§1) Figure 5 Dleu2-17aa attenuates EAE by promoting Treg cells. (A) Schematic diagram of MOG-induced EAE and treatment strategies with Dleu2-17aa, scrPEP, and Glatiramer. Mice received 100 μg of Dleu2-17aa or scrPEP every 3 days via i.v. injection or 150 μg of Glatiramer every day for seven times via s.c. on days 9 to 15. (B) Clinical scores were examined daily from day 9 using a scoring system ranging from 0 (no sign) to 5 (complete paralysis or dead). The x-axis represents experimental days, and the y-axis represents symptom severity (n = 8–9). (C) Representative Luxol fast blue (LFB) and hematoxylin and eosin staining (H&E) staining sections for treated EAE spinal cord. Scale bars: 100 μm. (D) Histopathology scores of inflammations and demyelination in treated EAE mice spinal cord using a scoring system ranging from 0 (no inflammatory cells or demyelination) to 4 (extensive inflammatory cells infiltration or confluent foci of demyelination) (n = 5–8). (E) Representative dot plots (left panel) and frequency (right panel) of CD44^hiCD62L^lo activated T cells, Foxp3^+ Treg cells, IL-17A^+ Th17 cells, and IFN-γ^+ Th1 cells gated on CD4^+ T cells in the spleen 14 days post immunization of MOG (n = 3). (F) Representative dot plots and frequency of CD4^+, Foxp3^+ Treg cells, and IFN-γ^+ Th1 cells gated on CD4^+ T cells in the CNS 14 days post immunization of MOG (n = 3). Data information: n indicates biological replicate. Error bars are mean ± SEM; *P < 0.05, **P < 0.01, and ***P < 0.001, n.s. indicates no significant difference. Statistical analysis was by two-way ANOVA for (B) and two-tailed Student’s t-test for (D–F). Source data are available online for this figure. TEXT PRINTED IN THE PICTURE: (E) scrPEP: Spleen: CD62L-PE-DF594 / CD44-PE: 78.2; Spleen: Foxp3-PE / CD4-APC: 7.38; Spleen: IFN-γ-Percp-cy5.5 / Il-17A-FITC: 4.67; Spleen: IFN-γ-Percp-cy5.5 / Il-17A-FITC: 0.18; Spleen: IFN-γ-Percp-cy5.5 / Il-17A-FITC: 94.7; Spleen: IFN-γ-Percp-cy5.5 / Il-17A-FITC: 0.44 | (E) Dleu2-17aa: Spleen: CD62L-PE-DF594 / CD44-PE: 37.2; Spleen: Foxp3-PE / CD4-APC: 12.9; Spleen: IFN-γ-Percp-cy5.5 / Il-17A-FITC: 2.83; Spleen: IFN-γ-Percp-cy5.5 / Il-17A-FITC: 0.26; Spleen: IFN-γ-Percp-cy5.5 / Il-17A-FITC: 96.1; Spleen: IFN-γ-Percp-cy5.5 / Il-17A-FITC: 0.79 | (F) scrPEP: CNS: FSC / CD4-APC: 9.03; CNS: Foxp3-PE / CD4-APC: 8.47; CNS: IFN-γ-Percp-cy5.5 / Il-17A-FITC: 22.9; CNS: IFN-γ-Percp-cy5.5 / Il-17A-FITC: 2.00; CNS: IFN-γ-Percp-cy5.5 / Il-17A-FITC: 69.7; CNS: IFN-γ-Percp-cy5.5 / Il-17A-FITC: 5.44 | (F) Dleu2-17aa: CNS: FSC / CD4-APC: 3.33; CNS: Foxp3-PE / CD4-APC: 15.5; CNS: IFN-γ-Percp-cy5.5 / Il-17A-FITC: 13.9; CNS: IFN-γ-Percp-cy5.5 / Il-17A-FITC: 2.65; CNS: IFN-γ-Percp-cy5.5 / Il-17A-FITC: 77.7; CNS: IFN-γ-Percp-cy5.5 / Il-17A-FITC: 5.79 DOUBTS OF THE COPYIST ABOUT THIS PICTURE: Panels E and F: the gate and quadrant numbers in the dot plots are printed with no measure or unit; the tissue heading and the axis labels of each plot are written in front of them. For the quadrant plots the order is upper left, upper right, lower left, lower right. / Panels E and F: the gate numbers are in small print, so 3, 5, 6, 8 and 9 are best readings: E scrPEP 78.2, 7.38, 4.67, 0.18, 94.7; E Dleu2-17aa 37.2, 12.9, 2.83, 0.26, 96.1, 0.79; F scrPEP 9.03, 8.47, 22.9, 69.7, 5.44; F Dleu2-17aa 3.33, 15.5, 13.9, 2.65, 5.79.
# (§2) For active EAE immunization, myelin oligodendrocyte glycoprotein peptide (MOGp35–55, […], GenScript) was emulsified in complete Freund adjuvant (Sigma-Aldrich). An equivalent of 300 μg MOG peptide was injected per mouse subcutaneously followed by 200 ng of pertussis toxin (Merck-Calbiochem) injection intravenously on day 0 and day 2 of immunization. […]
# [2] = tested on: CD4+ T cells in CNS of EAE mice; assay: Flow cytometry of CNS T cells of treated EAE mice; assay type: in vivo, mouse; settings: 100 μg i.v.
# Protocol: as §1, §2
# [3] = tested on: Foxp3 CNS1-luciferase reporter / Smad3; assay: Foxp3 CNS1-luciferase reporter assay in NIH/3T3 cells; assay type: cell-based, mouse; settings: 20 μM
sequence,measurement,setting,value
"ARGPARRMRGGRRRRLR [scrPEP, scrambled control peptide of Dleu2-17aa]",CD62LloCD44+/ CD4+ Cells(%),[1]; replicate 1,58.3%
same,Foxp3+/ CD4+ Cells (%),[1]; replicate 1,7.65%
same,IFN-γ+/ CD4+ Cells(%),[1]; replicate 1,4.58%
same,CD62LloCD44+/ CD4+ Cells(%),[1]; replicate 2,60.9%
same,Foxp3+/ CD4+ Cells (%),[1]; replicate 2,6.51%
same,IFN-γ+/ CD4+ Cells(%),[1]; replicate 2,4.35%
same,CD62LloCD44+/ CD4+ Cells(%),[1]; replicate 3,61.3%
same,Foxp3+/ CD4+ Cells (%),[1]; replicate 3,6.5%
same,IFN-γ+/ CD4+ Cells(%),[1]; replicate 3,4.11%
same,CD62LloCD44+/ CD4+ Cells(%),[1]; replicate 4,78.2%
same,Foxp3+/ CD4+ Cells (%),[1]; replicate 4,6.85%
same,IFN-γ+/ CD4+ Cells(%),[1]; replicate 4,4.28%
same,CD4+ / Live Cells(%),[2]; replicate 1,9.03%
same,Foxp3+/ CD4+ Cells (%),[2]; replicate 1,8.94%
same,IFN-γ+/ CD4+ Cells(%),[2]; replicate 1,22.8%
same,CD4+ / Live Cells(%),[2]; replicate 2,10.1%
same,Foxp3+/ CD4+ Cells (%),[2]; replicate 2,9.11%
same,IFN-γ+/ CD4+ Cells(%),[2]; replicate 2,22.9%
same,CD4+ / Live Cells(%),[2]; replicate 3,9.74%
same,Foxp3+/ CD4+ Cells (%),[2]; replicate 3,8.47%
same,IFN-γ+/ CD4+ Cells(%),[2]; replicate 3,23.8%
same,Relative luciferase activity,"[3]; with Smad3 vector, replicate 4",1.896
same,Relative luciferase activity,"[3]; with Smad3 vector, replicate 5",1.262
same,Relative luciferase activity,"[3]; without Smad3 vector, replicate 4",0.7583
same,Relative luciferase activity,"[3]; without Smad3 vector, replicate 5",0.8478
